# Tested on: caspase-3
# Assay: active caspase-3 levels, beadmates kit / Luminex
# Assay type: cell-based, human
# Conditions: 40 nM docetaxel, 48 hours, control siRNA cells
# Description: Docetaxel can cause cell death through induction of apoptosis (Kim et al., Int J Mol Med 11:799, 2003). To determine whether Pim-1 and BubR1 siRNAs could modulate a canonical apoptotic pathway in the absence and presence docetaxel, we studied activated caspase-3 levels in HCT116 cells (using a bioplex assay) (FIG. 14).
# In an attempt to define the molecular basis for enhanced cell death associated with a Pim-1 knockdown, we examined the activation state of a key cellular pathway involved in cell survival, AKT. HCT116 were seeded at 4×10^5 cells/well on 6-well plates and the next day transfected with siRNAs at 16 nM using Lipofectamine 2000 (Invitrogen). After 24 hours, cells were untreated or treated with 5 and 40 nM docetaxel. Cells were lysed 24, 48 and 72 hours after docetaxel addition with ice-cold lysis buffer (50 mM HEPES buffer (PH7.4), 1% NP40, 2.5 mM EDTA, 100 mM sodium fluoride, 10 mM sodium PPI, protease inhibitor cocktail tablet (Roche), 2 mM sodium orthovanadate) and centrifuged at 12,000 g for 10 minutes. Lysates were then quantified for total protein levels using DC protein assay (BioRad).
structure (smiles),measurement,value
CC(=O)O[C@@]12CO[C@@H]1C[C@H](O)[C@@]1(C)C(=O)[C@H](O)C3=C(C)[C@@H](OC(=O)[C@H](O)[C@@H](NC(=O)OC(C)(C)C)c4ccccc4)C[C@@](O)([C@@H](OC(=O)c4ccccc4)[C@H]21)C3(C)C [docetaxel],caspase-3 activity in control cells,induced
